In PubChem BioAssay (NCI):
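These data come from cells grown in 96-well plates and exposed to compound for 48 hours at five concentrations. The concentration for full growth arrest is given as TGI.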

Tests used:
Assay in all cases: NCI anticancer screen, dose series, 48 h
RPMI-8226 leukemia = test system: RPMI-8226 leukemia
M14 melanoma = test system: M14 melanoma
HCT-15 colon = test system: HCT-15 colon
OVCAR-8 ovarian = test system: OVCAR-8 ovarian
MOLT-4 leukemia = test system: MOLT-4 leukemia
OVCAR-5 ovarian = test system: OVCAR-5 ovarian
UACC-257 melanoma = test system: UACC-257 melanoma
A549 NSCLC = test system: A549 NSCLC
ACHN renal = test system: ACHN renal
HOP-92 NSCLC = test system: HOP-92 NSCLC
K-562 leukemia = test system: K-562 leukemia
SK-MEL-5 melanoma = test system: SK-MEL-5 melanoma
PC-3 prostate = test system: PC-3 prostate
SW-620 colon = test system: SW-620 colon
KM12 colon = test system: KM12 colon
NCI-H23 lung = test system: NCI-H23 lung
IGROV1 ovarian = test system: IGROV1 ovarian
HL-60(TB) leukemia = test system: HL-60(TB) leukemia
HCC-2998 colon = test system: HCC-2998 colon
NCI-H460 lung = test system: NCI-H460 lung
LOX IMVI melanoma = test system: LOX IMVI melanoma
U251 CNS = test system: U251 CNS
NCI-H522 lung = test system: NCI-H522 lung
SNB-19 CNS = test system: SNB-19 CNS
SK-MEL-28 melanoma = test system: SK-MEL-28 melanoma
CCRF-CEM leukemia = test system: CCRF-CEM leukemia
MDA-MB-231 breast = test system: MDA-MB-231 breast
HOP-62 NSCLC = test system: HOP-62 NSCLC
COLO 205 colon = test system: COLO 205 colon
MDA-MB-435 = test system: MDA-MB-435
SR leukemia = test system: SR leukemia
DU-145 prostate = test system: DU-145 prostate
SK-MEL-2 melanoma = test system: SK-MEL-2 melanoma
786-0 renal = test system: 786-0 renal
SN12C renal = test system: SN12C renal
TK-10 renal = test system: TK-10 renal
SF-268 CNS = test system: SF-268 CNS
MCF7 breast = test system: MCF7 breast
SF-295 CNS = test system: SF-295 CNS
HT29 colon = test system: HT29 colon
EKVX NSCLC = test system: EKVX NSCLC
NCI/ADR-RES ovarian = test system: NCI/ADR-RES ovarian
BT-549 breast = test system: BT-549 breast
SNB-75 CNS = test system: SNB-75 CNS
CAKI-1 renal = test system: CAKI-1 renal
MALME-3M melanoma = test system: MALME-3M melanoma
SK-OV-3 ovarian = test system: SK-OV-3 ovarian
A498 renal = test system: A498 renal
OVCAR-3 ovarian = test system: OVCAR-3 ovarian
RXF 393 renal = test system: RXF 393 renal
UACC-62 melanoma = test system: UACC-62 melanoma
NCI-H226 lung = test system: NCI-H226 lung
HS 578T breast = test system: HS 578T breast
T-47D breast = test system: T-47D breast
SF-539 CNS = test system: SF-539 CNS
HCT-116 colon = test system: HCT-116 colon
OVCAR-4 ovarian = test system: OVCAR-4 ovarian
UO-31 renal = test system: UO-31 renal

Measured: TGI

O=C(NCCn1ccnn1)Nc1ccccc1
not listed: SK-OV-3 ovarian | A498 renal | OVCAR-3 ovarian | RXF 393 renal | UACC-62 melanoma | NCI-H226 lung | HS 578T breast | T-47D breast | SF-539 CNS | HCT-116 colon | OVCAR-4 ovarian | UO-31 renal
> 100 µM: all other assays above

O=C(OCc1ccccc1)c1nc2ccccc2n1S(=O)(=O)c1ccccc1
not listed: NCI-H522 lung | SR leukemia | MCF7 breast
> 100 µM: all other assays above

COc1cc(C(=O)O[C@H]2CCC3CCC2N3C)cc(OC)c1OC (stereo not given in full)
not listed: PC-3 prostate | IGROV1 ovarian | NCI-H522 lung | SK-MEL-2 melanoma | BT-549 breast | CAKI-1 renal | OVCAR-3 ovarian | UACC-62 melanoma | T-47D breast
> 100 µM: all other assays above
